Results published in patent US9834558B2, “Substituted bridged urea analogs as sirtuin modulators” (GLAXOSMITHKLINE LLC, priority 2013, dated 2017).
Like-named read-outs stand apart in the source and are kept apart here. Values belong to the compound of their own block, whether it stands above or below them.

Experiments:
[1] = target: T1, full-length hSIRT1 wild-type (Homo sapiens, UniProt Q96EB6); test: SIRT1 activation and inhibition assays (OAcADPr mass spectrometry assay), wild-type enzyme; assay type: biochemical
T1 construct: Full-length human SIRT1 (hSIRT1) proteins were expressed with a C-terminal His6 tag; His6 (C); made in house
T1 sequence (Q96EB6 1-747): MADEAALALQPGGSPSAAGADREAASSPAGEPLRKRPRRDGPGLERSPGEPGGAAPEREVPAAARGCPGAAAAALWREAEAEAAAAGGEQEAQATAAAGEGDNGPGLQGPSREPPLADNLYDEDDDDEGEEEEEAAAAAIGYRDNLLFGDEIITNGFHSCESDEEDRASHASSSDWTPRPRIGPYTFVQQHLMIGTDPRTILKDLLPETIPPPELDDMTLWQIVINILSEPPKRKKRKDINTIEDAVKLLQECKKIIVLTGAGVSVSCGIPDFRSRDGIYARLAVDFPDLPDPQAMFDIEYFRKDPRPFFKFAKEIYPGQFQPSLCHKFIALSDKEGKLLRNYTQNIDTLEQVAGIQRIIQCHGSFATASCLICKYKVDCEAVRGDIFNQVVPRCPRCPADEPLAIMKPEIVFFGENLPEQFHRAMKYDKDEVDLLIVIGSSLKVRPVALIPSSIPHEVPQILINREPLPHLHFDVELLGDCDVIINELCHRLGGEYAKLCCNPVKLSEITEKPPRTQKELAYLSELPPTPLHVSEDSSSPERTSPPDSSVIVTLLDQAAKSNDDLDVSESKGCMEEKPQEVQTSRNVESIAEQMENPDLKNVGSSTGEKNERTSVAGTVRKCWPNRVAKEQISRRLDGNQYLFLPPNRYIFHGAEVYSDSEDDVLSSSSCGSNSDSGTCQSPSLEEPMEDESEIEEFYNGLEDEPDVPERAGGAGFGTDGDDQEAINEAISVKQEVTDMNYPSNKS

SIRT1 = target: T2, SIRT1 (Homo sapiens, UniProt Q96EB6); test: Trp mass spectrometry assay of SIRT1 activation; assay type: biochemical; conditions: for TRP Activity (EC1.5): EC1.5 = concentration that results in 150% activation of SIRT1
T2 sequence (Q96EB6 1-747): T1 sequence (Q96EB6 1-747)
Summary of the method: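 N-terminal His-tagged human SIRT1 (10 nM, E. coli BL21(DE3)) with 0.5 μM Ac-RHKK(Ac)W-NH2 peptide and 120 μM βNAD+, 25 min at 25 °C in HEPES pH 7.5, formic acid stop. OAADPR or deacetylated peptide quantified by mass spectrometry; EC1.5 (50% activity increase over control) and Percent Maximum Activation reported.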

[2] = Trp peptide assay, maximum activity relative to control (100%), read-out: TRP MAX RESP (percent maximum fold activation)
[3] = concentration giving 150% activation of SIRT1, Trp peptide substrate
[4] = Trp mass spectrometry assay, EC1.5 = concentration of test compound that results in 150% activation of SIRT1

SMILES: O=C(Nc1ccccn1)N1c2nc(-c3cccc(C(F)(F)F)c3)ccc2N2CC[C@H]1C2 [Example 7]
RVmax fold shift [1]: 1.00

SMILES: Cc1cnc2c(NC(=O)N3c4nc(-c5cccc(C(F)(F)F)c5)ccc4N4CC[C@H]3C4)cccc2n1 [Example 8]
RVmax fold shift [1]: 1.00

SMILES: Cc1nc(NC(=O)N2c3nc(-c4cccc(C(F)(F)F)c4)ccc3N3CC[C@H]2C3)nc2c1CCC2 [Example 91]
Tryp AVG EC1.5 (μM) (SIRT1; Trp peptide substrate, concentration giving 150% activation of SIRT1): B (B (EC1.5 1-25 μM))

SMILES: Cc1cc(-c2ccc3c(n2)N(C(=O)Nc2cncnc2)[C@H]2CCN3C2)ccn1 [(9S)-5-(2-methylpyridin-4-yl)-N-(pyrimidin-5-yl)-1,6,8-triazatricyclo[7.2.1.0 {2,7}]dodeca-2(7),3,5-triene-8-carboxamide]
TRP Activity (EC1.5) (SIRT1; Trp peptide assay): C (C (EC1.5>25 μM))
Emax (SIRT1; [2]): > 150%

SMILES: C[C@H]1CNCCN1c1ccc2c(n1)N(C(=O)Nc1cnccn1)[C@H]1CCN2C1 [(9S)-5-[(2S)-2-methylpiperazin-1-yl]-N-(pyrazin-2-yl)-1,6,8-triazatricyclo[7.2.1.0 {2,7}]dodeca-2,4,6-triene-8-carboxamide]
TRP Activity (EC1.5) (SIRT1; Trp peptide assay): C (C (EC1.5>25 μM))
Emax (SIRT1; [2]): < 150%

SMILES: O=C(NCC(F)(F)F)c1ccc2c(n1)N(C(=O)Nc1ccccn1)[C@H]1CCN2C1 [(9S)-8-N-(pyridin-2-yl)-5-N-(2,2,2-trifluoroethyl)-1,6,8-triazatricyclo[7.2.1.0 {2,7}]dodeca-2(7),3,5-triene-5,8-dicarboxamide]
TRP Activity (EC1.5) (SIRT1; Trp peptide assay): A (A (EC1.5<1 μM))
Emax (SIRT1; [2]): > 150%

SMILES: O=C(Nc1ccccn1)N1c2nc(-c3cc(F)cc(C(F)(F)F)c3)ccc2N2CC[C@H]1C2 [Example 333]
Tryp AVG EC1.5 (μM) (SIRT1; Trp mass spectrometry assay, concentration of test compound giving 150% activation of SIRT1): A (A (EC1.5<1 μM))

SMILES: O=C(O)c1cc(-c2ccc3c(n2)N(C(=O)Nc2cnccn2)[C@H]2CCN3C2)ccn1 [4-[(9S)-8-[(pyrazin-2-yl)carbamoyl]-1,6,8-triazatricyclo[7.2.1.0 {2,7}]dodeca-2(7),3,5-trien-5-yl]pyridine-2-carboxylic acid]
TRP Activity (EC1.5) (SIRT1; Trp peptide assay): C (C (EC1.5>25 μM))
Emax (SIRT1; [2]): < 150%

SMILES: Cc1cc(C)c(-c2ccc3c(n2)N(C(=O)Nc2cccnc2)[C@H]2CCN3C2)cn1 [(9S)-5-(4,6-dimethylpyridin-3-yl)-N-(pyridin-3-yl)-1,6,8-triazatricyclo[7.2.1.0 {2,7}]dodeca-2(7),3,5-triene-8-carboxamide]
TRP Activity (EC1.5) (SIRT1; Trp peptide assay): B (B (EC1.5 1-25 μM))
Emax (SIRT1; [2]): > 150%

SMILES: Cc1ccc(-c2ccc3c(n2)N(C(=O)NC2CCN(C)CC2)[C@H]2CCN3C2)cn1 [(9S)-N-(1-methylpiperidin-4-yl)-5-(6-methylpyridin-3-yl)-1,6,8-triazatricyclo[7.2.1.0^{2,7}]dodeca-2(7),3,5-triene-8-carboxamide]
TRP Activity (EC1.5) (SIRT1; Trp peptide assay): C (C (EC1.5>25 μM))
Emax (SIRT1; [2]): < 150%

SMILES: Cc1ccncc1-c1ccc2c(n1)N(C(=O)Nc1ccccn1)[C@H]1CCCN2C1 [Example 505]
Tryp AVG EC1.5 (μM) (SIRT1; [4]): C (C (EC1.5>25 μM))

SMILES: Cc1ccnc(NC(=O)N2c3nc(-c4ccnc(C)c4)ccc3N3CC[C@H]2C3)c1 [(9S)-N-(4-methylpyridin-2-yl)-5-(2-methylpyridin-4-yl)-1,6,8-triazatricyclo[7.2.1.0^2,7]dodeca-2,4,6-triene-8-carboxamide]
TRP Activity (EC1.5) (SIRT1; Trp peptide assay): B (B (EC1.5 1-25 μM))
Emax (SIRT1; [2]): > 150%

SMILES: Cc1cc(-c2ccc3c(n2)N(C(=O)Nc2ccc4c(cnn4C)c2)[C@H]2CCN3C2)ccn1 [Example 502]
Tryp AVG EC1.5 (μM) (SIRT1; [4]): A (A (EC1.5<1 μM))

SMILES: O=C(Nc1ccccn1)N1c2nc(-c3cccnc3)ccc2N2CCC[C@H]1C2 [Example 441]
Tryp AVG EC1.5 (μM) (SIRT1; [4]): B (B (EC1.5 1-25 μM))

Next, values leading:

Tryp AVG EC1.5 (μM) (SIRT1; [3]): B (B (EC1.5 1-25 μM))
SMILES: O=C(Nc1ccncn1)N1c2nc(-c3cccc(Cl)c3)ccc2N2C[C@@H](O)[C@H]1C2 [Example 684]

Tryp AVG EC1.5 (μM) (SIRT1; [4]): B (B (EC1.5 1-25 μM))
SMILES: O=C(Nc1cccnn1)N1c2nc(-c3cccc(N4CCOCC4)c3)ccc2N2CCC[C@H]1C2 [Example 539]

Tryp AVG EC1.5 (μM) (SIRT1; [4]): A (A (EC1.5<1 μM))
SMILES: CC(C)(C)OC(=O)N1CCc2cc(NC(=O)N3c4nc(-c5cccc(C(F)(F)F)c5)ccc4N4CC[C@H]3C4)ccc2C1 [Example 611]

Tryp AVG EC1.5 (μM) (SIRT1; [3]): C (C (EC1.5>25 μM))
SMILES: Cc1nccn1CCCNC(=O)N1c2nc(-c3cccc(C(F)(F)F)c3)ccc2N2CC[C@H]1C2 [Example 632]

Tryp AVG EC1.5 (μM) (SIRT1; [4]): B (B (EC1.5 1-25 μM))
SMILES: O=C(NCCCc1ccccc1)N1c2nc(-c3cccc(C(F)(F)F)c3)ccc2N2CC[C@H]1C2 [Example 599]

Tryp AVG EC1.5 (μM) (SIRT1; [3]): A (A (EC1.5<1 μM))
SMILES: CS(=O)(=O)c1cccc(-c2ccc3c(n2)N(C(=O)Nc2cncc(-c4cnco4)c2)[C@H]2CCN3C2)c1 [Example 724]

Tryp AVG EC1.5 (μM) (SIRT1; [3]): A (A (EC1.5<1 μM))
SMILES: CC(C)(C)OC(=O)NCC#Cc1ccc(NC(=O)N2c3nc(-c4cccc(C(F)(F)F)c4)ccc3N3CC[C@H]2C3)cc1-c1cnco1 [Example 751]

Tryp AVG EC1.5 (μM) (SIRT1; [3]): A (A (EC1.5<1 μM))
Emax (SIRT1; percent maximum fold activation of SIRT1, Trp peptide substrate, read-out: Tryp % Fold Act): > 150%
SMILES: NCCCc1cc(NC(=O)N2c3nc(-c4cccc(C(F)(F)F)c4)ccc3N3CCC[C@H]2C3)cc(-c2cnco2)c1 [Example 770]
